{"source": "patent US9375388B2", "about": "“Nanoparticle based cosmetic composition” (Indian Institute of Technology, priority 2011, dated 2016)", "experiment": "Confocal laser scanning microscopy of skin penetration of dye", "assay_type": "in vitro ADME", "details": "CLSM of rat skin, calcein dye (FIG. 2)", "description": "FIG. 2. CLSM image of rat skin: without calcein dye under (a) calcein filter (b) bright field; with free calcein solution under (c) calcein filter (d) bright field; with calcein-loaded SPC liposomes under (e) calcein filter (f) bright field."}
{"smiles": "O=C(O)CN(CC(=O)O)Cc1cc2c(cc1O)Oc1cc(O)c(CN(CC(=O)O)CC(=O)O)cc1C21OC(=O)c2ccccc21", "note": "[free dye, calcein]", "values": [{"measurement": "Penetration of dye through skin", "result": "visible only at the surface of the skin and around the hair follicles"}]}
